The values that follow come from patent publication US11098032B2, “Pyran dervatives as CYP11A1 (cytochrome P450 monooxygenase 11A1) inhibitors” (ORION CORPORATION, priority 2016, dated 2021).

Broadly, the IC50 is the midpoint of a concentration-inhibition curve.

Where a name gives a salt, the structure may show the parent alone.

The target of this experiment is T1, CYP11A1 (Homo sapiens, UniProt P05108).
T1 construct: human H295R adrenocortical carcinoma cell line was used as source of enzyme; endogenous in cells; host or cells: H295R human adrenocortical carcinoma cells
T1 sequence (P05108 40-521): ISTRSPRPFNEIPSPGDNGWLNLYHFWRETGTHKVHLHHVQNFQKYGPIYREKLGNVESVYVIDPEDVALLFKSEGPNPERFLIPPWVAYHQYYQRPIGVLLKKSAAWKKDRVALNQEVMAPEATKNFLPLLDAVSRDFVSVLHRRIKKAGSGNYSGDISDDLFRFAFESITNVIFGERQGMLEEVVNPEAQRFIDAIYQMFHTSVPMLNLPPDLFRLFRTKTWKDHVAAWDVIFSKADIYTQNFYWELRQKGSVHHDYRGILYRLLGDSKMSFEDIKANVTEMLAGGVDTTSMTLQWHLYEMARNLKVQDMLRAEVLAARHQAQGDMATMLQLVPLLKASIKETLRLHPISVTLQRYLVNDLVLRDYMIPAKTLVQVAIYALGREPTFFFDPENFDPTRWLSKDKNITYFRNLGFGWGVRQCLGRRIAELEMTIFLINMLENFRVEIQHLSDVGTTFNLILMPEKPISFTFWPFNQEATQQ
Briefly: CYP11A1 inhibition: modified isocaproic acid release assay (IARA) in H295R cells. Type of experiment: cell-based. As to conditions: human H295R adrenocortical carcinoma cells treated three days, 3 nM [24,25-3H]-labelled cholesterol, 1% DMSO, 10 concentrations in duplicates; read-out: IC50 of the test compounds on CYP11A1 inhibition. In a few lines: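 Cholesterol side-chain cleavage followed as tritiated isocaproic acid in charcoal-extracted medium, counted by scintillation. Substrate was 3 nM [24,25-3H]-cholesterol on human H295R cells exposed for three days to ten compound concentrations (duplicates, 1% DMSO); IC50 derived.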
Regarding `CC(C)S(=O)(=O)N1CCC(COc2coc(CN3Cc4ccccc4C3)cc2=O)CC1` [Compound 270, 2-(Isoindolin-2-ylmethyl)-5-((1-(isopropylsulfonyl)piperidin-4-yl)methoxy)-4H-pyran-4-one], the 50% inhibitory concentration (IC50) lay in the range of 150 to 300 nM.

With `COc1ccc2c(c1)CN(Cc1cc(=O)c(OCc3ccc(C(=O)N4CC(F)(F)C4)cc3)co1)C2` [Compound 162, 5-((4-(3,3-Difluoroazetidine-1-carbonyl)benzyl)oxy)-2-((5-methoxyisoindolin-2-yl)methyl)-4H-pyran-4-one], the half-maximal inhibitory concentration (IC50) is under 150 nM.

`O=c1cc(CN2Cc3ccccc3C2)occ1OCc1ccc(CO)cc1` [Compound 123, 5-((4-(Hydroxymethyl)benzyl)oxy)-2-(isoindolin-2-ylmethyl)-4H-pyran-4-one]: the IC50 was in the range of 301 to 2000 nM. With `CS(=N)(=O)c1ccc(COc2coc(CN3Cc4ccc(C(F)(F)F)cc4C3)cc2=O)cc1` (centres unmarked) [Compound 89, 5-((4-(S-Methylsulfonimidoyl)benzyl)oxy)-2-((5-(trifluoromethyl)isoindolin-2-yl)methyl)-4H-pyran-4-one] the figure was under 150 nM; with `CC(C)(C)C(=O)N1CCC(COc2coc(CN3Cc4ccccc4C3)cc2=O)CC1` [Compound 251, 2-(Isoindolin-2-ylmethyl)-5-((1-pivaloylpiperidin-4-yl)methoxy)-4H-pyran-4-one], under 150 nM. With `CS(=O)(=O)c1ccc(COc2coc(CN3Cc4cccc(F)c4C3)cc2=O)cc1` [Compound 27, 2-((4-Fluoroisoindolin-2-yl)methyl)-5-((4-(methylsulfonyl)benzyl)oxy)-4H-pyran-4-one] the figure was 301 to 2000 nM. The value for `CSc1ccc2c(c1)CN(Cc1cc(=O)c(OCC3CCN(S(C)(=O)=O)CC3)co1)C2` [Compound 208, 5-((1-(Methylsulfonyl)piperidin-4-yl)methoxy)-2-((5-(methylthio)isoindolin-2-yl)methyl)-4H-pyran-4-one] was 150 to 300 nM; that for `COc1ccc2c(c1)CCN(Cc1cc(=O)c(OCc3ccc(C#N)cc3)co1)C2` [Compound 53, 4-(((6-((6-Methoxy-3,4-dihydroisoquinolin-2(1H)-yl)methyl)-4-oxo-4H-pyran-3-yl)oxy)methyl)benzonitrile] was 150 to 300 nM; that for `Cc1ccc(S(=O)(=O)N=S(C)c2ccc(COc3coc(CN4Cc5ccccc5C4)cc3=O)cc2)cc1` (centres unmarked) [Compound 93, N-{[4-({[6-(1,3-dihydro-2H-isoindol-2-ylmethyl)-4-oxo-4H-pyran-3-yl]oxy}-methyl)phenyl](methyl)-λ^4-sulfanylidene}-4-methylbenzenesulfonamide] was under 150 nM. On to `N#Cc1cccc(COc2coc(CN3CCc4ccccc4C3)cc2=O)c1` [Compound 50, 3-(((6-((3,4-Dihydroisoquinolin-2(1H)-yl)methyl)-4-oxo-4H-pyran-3-yl)oxy)-methyl)benzonitrile], for which the IC50 lay within 301 to 2000 nM.

As to `O=C(c1ccc(COc2coc(CN3Cc4ccccc4C3)cc2=O)cc1)N1CC(F)(F)C1` [Compound 158, 5-((4-(3,3-Difluoroazetidine-1-carbonyl)benzyl)oxy)-2-(isoindolin-2-ylmethyl)-4H-pyran-4-one], the IC50 fell in the range of 150 to 300 nM. `CN(C)S(=O)(=O)N1CCC(COc2coc(CN3Cc4ccccc4C3)cc2=O)CC1` [Compound 225, 4-(((6-(Isoindolin-2-ylmethyl)-4-oxo-4H-pyran-3-yl)oxy)methyl)-N,N-dimethyl-piperidine-1-sulfonamide]: the IC50 is under 150 nM. For `CC(=O)c1ccc(COc2coc(CN3Cc4ccccc4C3)cc2=O)cc1` [Compound 31, 5-((4-Acetylbenzyl)oxy)-2-(isoindolin-2-ylmethyl)-4H-pyran-4-one], the half-maximal inhibitory concentration (IC50) was 150 to 300 nM. Consider `CS(=O)(=O)N[C@@H]1CC[C@H](COc2coc(CN3Cc4ccccc4C3)cc2=O)C1` (relative stereo) [Compound 276, Cis-N-(3-(((6-(Isoindolin-2-ylmethyl)-4-oxo-4H-pyran-3-yl)oxy)methyl)-cyclo-pentyl)-methanesulfonamide], for which the IC50 was 150 to 300 nM.

For the molecule `CS(=O)(=O)c1ccc(COc2coc(CN3Cc4ccc(Cl)cc4C3)cc2=O)cc1` [Compound 64, 2-((5-Chloroisoindolin-2-yl)methyl)-5-((4-(methylsulfonyl)benzyl)oxy)-4H-pyran-4-one], the IC50 was 150 to 300 nM.

For `O=c1cc(CN2Cc3ccccc3C2)occ1OCCCc1ccncc1` [Compound 214, 2-(Isoindolin-2-ylmethyl)-5-(3-(pyridin-4-yl)propoxy)-4H-pyran-4-one], the half-maximal inhibitory concentration (IC50) lay in the range of 150 to 300 nM.

For the molecule `CS(=O)(=O)N1CC[C@@H](COc2coc(CN3Cc4ccccc4C3)cc2=O)C1` [Compound 277, (R)-2-(Isoindolin-2-ylmethyl)-5-((1-(methylsulfonyl)pyrrolidin-3-yl)methoxy)-4H-pyran-4-one], the IC50 fell in the range of 301 to 2000 nM. With `CC(C)S(=O)(=O)c1ccc(COc2coc(CN3Cc4ccccc4C3)cc2=O)cc1` [Compound 25, 2-(Isoindolin-2-ylmethyl)-5-((4-(isopropylsulfonyl)benzyl)oxy)-4H-pyran-4-one] the figure was 150 to 300 nM. With `CS(C)(=O)=NC(=O)c1ccc(COc2coc(CN3Cc4ccc(F)cc4C3)cc2=O)cc1` [Compound 84, N-[Dimethyl(oxido)-λ^6-sulfanylidene]-4-[({6-[(5-fluoro-1,3-dihydro-2H-iso-indol-2-yl)methyl]-4-oxo-4H-pyran-3-yl}oxy)methyl]benzamide], the concentration for half-maximal inhibition (IC50) is under 150 nM. Turning to `COc1cc(COc2coc(CN3Cc4ccccc4C3)cc2=O)ccn1` [Compound 110, 2-(Isoindolin-2-ylmethyl)-5-((2-methoxypyridin-4-yl)methoxy)-4H-pyran-4-one], the IC50 is 301 to 2000 nM.

`O=c1cc(CN2Cc3ccccc3C2)occ1OCc1ccc(SC(F)(F)F)cc1` [Compound 3, 2-(Isoindolin-2-ylmethyl)-5-((4-((trifluoromethyl)thio)benzyl)oxy)-4H-pyran-4-one]: the IC50 fell in the range of 301 to 2000 nM. With `CS(=O)(=O)N1CCC(F)(COc2coc(CN3Cc4ccc(F)cc4C3)cc2=O)CC1` [Compound 237, 5-((4-Fluoro-1-(methylsulfonyl)piperidin-4-yl)methoxy)-2-((5-fluoroisoindolin-2-yl)methyl)-4H-pyran-4-one] the figure was 150 to 300 nM; with `C[C@@H]1c2ccccc2CN1Cc1cc(=O)c(OCc2ccc(C(=O)N(C)C)cc2)co1` [Compound 133, (R)—N,N-Dimethyl-4-(((6-((1-methylisoindolin-2-yl)methyl)-4-oxo-4H-pyran-3-yl)oxy)methyl)benzamide], 301 to 2000 nM. With `CS(=O)(=O)N1C=CC(COc2coc(CN3Cc4ccc(C(F)(F)F)cc4C3)cc2=O)CC1` (centres unmarked) [Compound 291, 5-((1-(Methylsulfonyl)-1,2,3,4-tetrahydropyridin-4-yl)methoxy)-2-((5-(trifluoro-methyl)isoindolin-2-yl)methyl)-4H-pyran-4-one] the figure was 150 to 300 nM.

`CC(=O)OCC(=O)N1CCC(COc2coc(CN3Cc4ccccc4C3)cc2=O)CC1` [Compound 257, 2-(4-(((6-(Isoindolin-2-ylmethyl)-4-oxo-4H-pyran-3-yl)oxy)methyl)piperidin-1-yl)-2-oxoethyl acetate]: the IC50 was under 150 nM. With `O=c1cc(CN2Cc3ccccc3C2)occ1OCc1ccc(S(=O)(=O)C2CC2)cc1` [Compound 72, 5-((4-(Cyclopropylsulfonyl)benzyl)oxy)-2-(isoindolin-2-ylmethyl)-4H-pyran-4-one] the figure was under 150 nM. Regarding `CC(C)S(=O)(=O)N1CC=C(COc2coc(CN3Cc4ccccc4C3)cc2=O)CC1` [Compound 100, 2-(Isoindolin-2-ylmethyl)-5-((1-(isopropylsulfonyl)-1,2,3,6-tetrahydropyridin-4-yl)methoxy)-4H-pyran-4-one], the concentration for half-maximal inhibition (IC50) lay within 150 to 300 nM. With `CS(=O)(=O)c1ccc(COc2coc(CN3CCc4ccccc4C3)cc2=O)cc1` [Compound 14, 2-((3,4-Dihydroisoquinolin-2(1H)-yl)methyl)-5-((4-(methylsulfonyl)benzyl)oxy)-4H-pyran-4-one] the figure was 301 to 2000 nM. The value for `O=c1cc(CN2Cc3ccccc3C2)occ1OC[C@H]1C=C[C@@H](NS(=O)(=O)C2CC2)C1` (relative stereo) [Compound 274, Cis-N-(4-(((6-(isoindolin-2-ylmethyl)-4-oxo-4H-pyran-3-yl)oxy)methyl)cyclo-pent-2-en-1-yl)cyclopropanesulfonamide, Formate] was 301 to 2000 nM; that for `CS(=O)(=O)N1CCC(COc2coc(CN3Cc4cc5c(cc4C3)OCO5)cc2=O)CC1` [Compound 209, 2-((5,7-Dihydro-6H-[1,3]dioxolo[4,5-f]isoindol-6-yl)methyl)-5-((1-(methyl-sulfonyl)piperidin-4-yl)methoxy)-4H-pyran-4-one] was 150 to 300 nM.

`CCN(CC)C(=O)c1ccc(COc2coc(CN3Cc4ccccc4C3)cc2=O)cc1` [Compound 126, N,N-Diethyl-4-(((6-(isoindolin-2-ylmethyl)-4-oxo-4H-pyran-3-yl)oxy)methyl)-benzamide]: the half-inhibitory concentration (IC50) lay within 150 to 300 nM.

On to `C=C(C)c1ccc(COc2coc(CN3Cc4ccccc4C3)cc2=O)cc1` [Compound 47], for which the half-inhibitory concentration (IC50) was under 150 nM.
